Experiment: Plasma pharmacokinetics after single oral dose of Δ8-THCV in MCT oil (LC-MS/MS, non-compartmental analysis)
Type: in vivo, human
Details: of 504 plasma samples from 15 participants after oral Δ8-THCV
Description: The study was a two-phase, dose-ranging, placebo-controlled trial in 21 healthy participants to assess the safety, tolerability, PK, and PD of an oral formulation of Δ8-THCV. A detailed description of the study was published elsewhere. The study product was a medium-chain triglyceride (MCT) oil oral formulation of Δ8-THCV at a concentration of 50 mg/mL. […] MCT oil was used as placebo.
Twenty-one participants were enrolled in the clinical study and plasma samples from 15 participants were sent to our laboratory for pharmacokinetic evaluation. Of these, 3 participants were enrolled in Phase 1, an unblinded, placebo-controlled, single ascending dose design and 12 were enrolled in Phase 2, a double-blind, randomized, placebo-controlled, within-participant crossover design. At each study session, participants received one of the following oral doses: placebo, 12.5 mg, 25 mg, 50 mg, 100 mg, and 200 mg of the aforementioned Δ8-THCV formulation in MCT. Study visits were separated by a washout period of a minimum of one week and maximum of 28 days. Participants entered the research facility the night before the session and received the study product in the morning after a standardized high-fat, high-calorie breakfast. PK blood samples included in this analysis were collected prior to dosing and 0.5, 1, 2, 4, 6, and 8 h after dose. Immediately following collection into K2EDTA tubes, blood samples were placed on wet ice, centrifuged, and plasma was immediately frozen at −80 °C until shipment to the bioanalytical laboratory (iC42 Clinical Research and Development, University of Colorado, Aurora, CO, USA) on dry ice.
Plasma samples were analyzed using a validated high-performance liquid chromatography–tandem mass spectrometry (LC-MS/MS) assay. The assay included Δ8-THCV and its main metabolites 11-OH-Δ8-THCV and Δ8-THCV-COOH, Δ9-THCV and its main metabolite Δ9-THCV-COOH, and Δ9-THC and Δ8-THC as well as their main metabolites (Figure 3). The complete list of analyzed compounds and a summary of the key performance parameters of the assay are presented in Appendix A and Table A1 and Table A2. […] For the PK analysis, concentrations below the lower limit of quantification were set to 0 ng/mL. PK parameters were calculated using non-compartmental analysis (Phoenix WinNonlin version 8.4., Certara, Princeton, NJ, USA). Statistical analysis was carried out using GraphPad Prism (version 10, Boston, MA, USA).

| Structure (SMILES) | number of positive plasma samples |
| --- | --- |
| CCCCCc1cc(O)c2c(c1)OC(C)(C)[C@@H]1CCC(C)=CC21 (some centres unmarked) [Δ9-THC, Δ9-tetrahydrocannabinol, reference compound] | No positive samples |
| CCCCCc1cc(O)c2c(c1)OC(C)(C)[C@@H]1CC=C(C)CC21 (some centres unmarked) [Δ8-THC, Δ8-tetrahydrocannabinol, reference compound] | No positive samples |

From publication PMC11676667, “Pharmacokinetics of Oral Cannabinoid Δ8-Tetrahydrocannabivarin and Its Main Metabolites in Healthy Participants” (Pharmaceuticals, 2024)
